The text below walks through data of US8431376B2, “Bacterial replication systems and methods” (priority 2004, dated 2013).

Holding throughout (assay type): biochemical
For assay [1], the target named is Y. pestis DNA polymerase III holoenzyme (Yersinia pestis, UniProt Q0WHY6). The following applies: read-out: IC50 Y. pestis.
Assay [2] deals with S. pyogenes DNA polymerase holoenzyme (PolC, tau-complex, β) (Streptococcus pyogenes, UniProt Q8NZB5). The following applies: read-out: IC50 S. pyog.
For assay [3], the target named is Y. pestis DNA polymerase III holoenzyme.
The next assay concerns the target Pol III holoenzyme. The settings on record: read-out: low μM activity as Pol III holoenzyme inhibitor.

Chain of S. pyogenes DNA polymerase holoenzyme (PolC, tau-complex, β) (Q8NZB5 whole entry): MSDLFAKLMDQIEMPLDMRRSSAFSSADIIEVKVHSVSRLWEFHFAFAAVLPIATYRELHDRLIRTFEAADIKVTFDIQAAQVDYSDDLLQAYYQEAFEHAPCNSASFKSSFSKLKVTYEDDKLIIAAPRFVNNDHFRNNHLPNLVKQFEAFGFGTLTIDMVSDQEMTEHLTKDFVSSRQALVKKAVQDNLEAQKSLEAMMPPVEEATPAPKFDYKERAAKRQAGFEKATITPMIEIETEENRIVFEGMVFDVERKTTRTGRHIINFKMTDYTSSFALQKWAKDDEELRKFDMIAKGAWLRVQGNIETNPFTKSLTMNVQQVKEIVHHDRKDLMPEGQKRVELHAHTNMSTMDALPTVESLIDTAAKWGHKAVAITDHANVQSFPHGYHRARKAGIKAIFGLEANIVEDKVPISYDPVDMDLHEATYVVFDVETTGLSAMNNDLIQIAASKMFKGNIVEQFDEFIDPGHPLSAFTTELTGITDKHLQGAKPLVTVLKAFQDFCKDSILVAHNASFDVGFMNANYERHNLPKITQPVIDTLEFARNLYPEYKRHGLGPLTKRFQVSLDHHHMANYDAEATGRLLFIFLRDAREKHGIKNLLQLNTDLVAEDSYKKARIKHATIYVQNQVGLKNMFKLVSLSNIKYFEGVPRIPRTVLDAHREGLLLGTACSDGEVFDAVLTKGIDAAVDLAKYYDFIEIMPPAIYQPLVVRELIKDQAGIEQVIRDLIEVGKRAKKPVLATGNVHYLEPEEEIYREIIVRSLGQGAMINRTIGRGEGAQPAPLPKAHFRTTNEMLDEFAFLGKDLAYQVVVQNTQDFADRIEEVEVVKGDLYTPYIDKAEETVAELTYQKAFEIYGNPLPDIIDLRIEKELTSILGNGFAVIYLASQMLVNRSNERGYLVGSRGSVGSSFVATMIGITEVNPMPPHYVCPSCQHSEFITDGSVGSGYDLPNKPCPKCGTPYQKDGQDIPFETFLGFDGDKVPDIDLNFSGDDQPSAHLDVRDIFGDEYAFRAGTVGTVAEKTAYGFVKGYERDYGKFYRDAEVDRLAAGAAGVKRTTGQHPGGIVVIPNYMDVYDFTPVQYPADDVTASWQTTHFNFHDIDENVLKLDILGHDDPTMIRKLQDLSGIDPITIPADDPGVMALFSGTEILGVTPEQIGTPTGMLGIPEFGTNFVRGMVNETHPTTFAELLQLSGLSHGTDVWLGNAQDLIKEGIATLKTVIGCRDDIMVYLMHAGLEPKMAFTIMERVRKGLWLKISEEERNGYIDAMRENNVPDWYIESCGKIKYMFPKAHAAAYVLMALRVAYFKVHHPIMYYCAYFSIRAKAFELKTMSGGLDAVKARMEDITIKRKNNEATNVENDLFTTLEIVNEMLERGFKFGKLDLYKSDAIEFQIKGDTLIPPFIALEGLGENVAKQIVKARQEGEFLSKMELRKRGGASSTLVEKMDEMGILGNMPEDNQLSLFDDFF
Chain of S. pyogenes DNA polymerase holoenzyme (PolC, tau-complex, β) (Q7DAL6 1-556 partner): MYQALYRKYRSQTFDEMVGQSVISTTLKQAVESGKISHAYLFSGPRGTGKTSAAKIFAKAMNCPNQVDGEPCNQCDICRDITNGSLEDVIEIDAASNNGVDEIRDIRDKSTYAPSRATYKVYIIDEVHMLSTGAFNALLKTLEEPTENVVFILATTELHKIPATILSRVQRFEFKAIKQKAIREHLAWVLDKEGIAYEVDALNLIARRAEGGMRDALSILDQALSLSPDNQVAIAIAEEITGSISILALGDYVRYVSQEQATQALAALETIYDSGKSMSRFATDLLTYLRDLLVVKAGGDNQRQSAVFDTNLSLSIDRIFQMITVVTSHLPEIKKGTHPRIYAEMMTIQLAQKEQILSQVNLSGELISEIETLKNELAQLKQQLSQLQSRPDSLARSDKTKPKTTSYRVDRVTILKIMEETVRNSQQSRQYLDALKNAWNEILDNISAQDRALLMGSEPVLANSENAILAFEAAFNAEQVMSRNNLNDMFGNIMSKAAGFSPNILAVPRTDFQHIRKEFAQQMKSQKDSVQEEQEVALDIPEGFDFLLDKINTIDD
Chain of S. pyogenes DNA polymerase holoenzyme (PolC, tau-complex, β) (Q7DAL5 1-346 partner): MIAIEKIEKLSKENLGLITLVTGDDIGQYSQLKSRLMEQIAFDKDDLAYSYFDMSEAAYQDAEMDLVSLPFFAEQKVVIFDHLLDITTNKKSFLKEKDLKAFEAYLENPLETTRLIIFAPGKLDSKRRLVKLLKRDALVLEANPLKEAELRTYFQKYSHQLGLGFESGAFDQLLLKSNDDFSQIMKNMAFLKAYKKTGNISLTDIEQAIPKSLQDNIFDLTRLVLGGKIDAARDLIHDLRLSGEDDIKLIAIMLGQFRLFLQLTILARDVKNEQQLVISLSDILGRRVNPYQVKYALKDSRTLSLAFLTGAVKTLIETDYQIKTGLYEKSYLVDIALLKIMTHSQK
Chain of S. pyogenes DNA polymerase holoenzyme (PolC, tau-complex, β) (Q9A209 1-378 partner): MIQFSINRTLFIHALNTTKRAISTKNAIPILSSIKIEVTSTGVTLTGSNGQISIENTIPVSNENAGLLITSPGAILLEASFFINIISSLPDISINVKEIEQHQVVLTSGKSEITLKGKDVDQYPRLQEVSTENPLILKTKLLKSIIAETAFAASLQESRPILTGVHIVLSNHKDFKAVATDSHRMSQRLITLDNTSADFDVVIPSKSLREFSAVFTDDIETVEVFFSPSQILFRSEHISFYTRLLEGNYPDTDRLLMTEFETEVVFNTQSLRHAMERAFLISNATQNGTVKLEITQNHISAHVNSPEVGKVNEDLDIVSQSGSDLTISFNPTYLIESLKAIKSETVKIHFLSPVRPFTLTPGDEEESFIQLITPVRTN

Consider `Cc1cccc(C)c1/C=C1\SC(=S)NC1=O`, for which the IC50 in assay [1] turned out to be 302 µM; in assay [2] it was 271 µM. `O=C1NC(=S)S/C1=C\c1cccc(C(F)(F)F)c1F`: the values for the IC50 in assay [1] and in assay [2] were 166 µM and 67.9 µM, respectively. On to `COc1cc(/C=C2\SC(=S)NC2=O)c([N+](=O)[O-])cc1OC`, for which the IC50 in assay [1] and in assay [2] was over 320 µM each time. For the compound `CC(C)Oc1c(Br)cc(Br)cc1/C=C1\SC(=S)NC1=O`, the IC50 in assay [1] was found to be 18.8 µM; in assay [2] it was 7.11 µM.

For `O=C1NC(=S)S/C1=C\c1cc(Cl)ccc1[N+](=O)[O-]`, the IC50 in assay [1] is 267 µM; in assay [2], 163 µM. `O=C1NC(=S)S/C1=C\c1cccc(F)c1F`: the IC50 amounted to 212 µM in assay [1] and 214 µM in assay [2]. As to `O=C1NC(=S)S/C1=C\c1cc2c(cc1[N+](=O)[O-])OCO2`, the results for the IC50 in assay [1] and in assay [2] were 144 µM and 98.3 µM, respectively.

`O=C1NC(=S)S/C1=C\c1cc(C(F)(F)F)ccc1F`: the IC50 in assay [1] was 108 µM; in assay [2] it was 45.1 µM. Take `O=C1NC(=S)S/C1=C\c1cc(F)ccc1F`: the IC50 in assay [2] is 211 µM.

With `O=C1NC(=S)S/C1=C\c1cc([N+](=O)[O-])ccc1N1CCOCC1`, the IC50 in assay [1] amounted to 108 µM; in assay [2], 192 µM. On the same counts, the results for `C/N=C1\NC(=O)/C(=C/c2ccc(Cl)c(Cl)c2)S1` are 286 µM and 112 µM. As for `O=C1NC(=S)S/C1=C\c1cc(F)c(F)cc1F`, the IC50 in assay [1] was found to be 203 µM; in assay [2], 121 µM. With `COc1cccc(F)c1/C=C1\SC(=S)NC1=O`, the values for the IC50 in assay [3] and in assay [2] were 195 µM and over 320 µM, respectively. Regarding `O=C1NC(=S)S/C1=C\c1c(F)cccc1F`, the figures for the IC50 in assay [1] and in assay [2] were 196 µM and over 320 µM, respectively.

Turning to `O=C1NC(=S)S/C1=C\c1ccc([N+](=O)[O-])c(O)c1`, in assay [1], the IC50 was determined as 162 µM. On to `O=C1NC(=S)S/C1=C\c1cc([N+](=O)[O-])ccc1Cl`, for which the IC50 in assay [1] was 88.9 µM; in assay [2], 81.6 µM.

As to `O=C1NC(=S)SC1=Cc1cc([N+](=O)[O-])ccc1Sc1ccc(Cl)cc1` [5-[2-(4-Chloro-phenylsulfanyl)-5-nitro-benzylidene]-2-thioxo-thiazolidin-4-one], the IC50 at Pol III holoenzyme was in the range of 3 to 7 µM. `O=C1NC(=S)S/C1=C\c1cc(Br)ccc1F`: the results for the IC50 in assay [1] and in assay [2] were 95.9 µM and 64.5 µM, respectively.

Turning to `O=C1NC(=S)S/C1=C\c1cc([N+](=O)[O-])ccc1Sc1ccc(Cl)cc1`, the figures for the IC50 in assay [1] and in assay [2] were 4.62 µM and 3.53 µM, respectively. Take `O=C1NC(=S)S/C1=C\c1c(Cl)cccc1Cl`: the IC50 in assay [1] was 162 µM; in assay [2] it was 102 µM. Regarding `COc1cc(F)c(/C=C2\SC(=S)NC2=O)cc1OC`, the IC50 in assay [1] and in assay [2] was over 320 µM throughout. Take `O=C1NC(=S)S/C1=C\c1cccc(Cl)c1F`: the IC50 in assay [1] amounted to 123 µM; in assay [2], 79.9 µM. As for `O=C1NC(=S)S/C1=C\c1ccc(Cl)c(Cl)c1` [drawing 34], the IC50 in assay [1] was determined as 61.6 µM; in assay [2] it was 37.2 µM. As to `O=C1NC(=S)S/C1=C\c1ccc(Br)cc1F`, the IC50 in assay [1] came to 28.5 µM; in assay [2], 60 µM. Regarding `COc1cccc(/C=C2\SC(=S)NC2=O)c1F`, the IC50 in assay [1] is 54.1 µM; in assay [2], 277 µM. Turning to `O=C1NC(=S)S/C1=C\c1ccc(F)c(F)c1`, the figures for the IC50 in assay [1] and in assay [2] were 241 µM and 181 µM, respectively. As to `COc1cccc(OC)c1/C=C1\SC(=S)NC1=O`, the IC50 is 186 µM in assay [1] and over 320 µM in assay [2].

As for `COc1ccc(/C=C2\SC(=S)NC2=O)cc1[N+](=O)[O-]`, the IC50 in assay [1] was 48.9 µM; in assay [2], over 320 µM.

For `O=C1NC(=S)S/C1=C\c1cc(Br)cc(Br)c1O`, the IC50 in assay [1] and in assay [2] was over 320 µM throughout. In the case of `O=C1NC(=S)S/C1=C\c1ccc(F)cc1F`, the IC50 is 315 µM in assay [1] and 288 µM in assay [2]. As for `O=C1NC(=S)S/C1=C\c1cc([N+](=O)[O-])ccc1OC(F)F`, the values for the IC50 in assay [1] and in assay [2] were 52.9 µM and 96 µM, respectively.

Consider `O=C1NC(=S)S/C1=C\c1ccc(Cl)c([N+](=O)[O-])c1`, for which the IC50 in assay [1] turned out to be 27.2 µM; in assay [2] it was 24.2 µM. Consider `O=C1NC(=S)S/C1=C\c1ccc(N2CCOCC2)c([N+](=O)[O-])c1`, for which the IC50 in assay [1] and in assay [2] was over 320 µM throughout.

As to `O=C1NC(=S)S/C1=C\c1ccc(Cl)c(Cl)c1` [drawing 37], the IC50 in assay [1] and in assay [2] was over 320 µM each time. Take `CC(C)(C)c1ccc(Oc2ccc([N+](=O)[O-])cc2/C=C2\SC(=S)NC2=O)cc1`: the IC50 in assay [1] was determined as 7.03 µM; in assay [2] it was 4.38 µM. For `O=C1NC(=S)S/C1=C\c1ccc(Cl)cc1[N+](=O)[O-]`, the IC50 in assay [1] amounted to 63.9 µM; in assay [2], 133 µM. For `C/N=C1\NC(=O)/C(=C/c2cc(Br)cc(Br)c2OC)S1`, the IC50 in assay [1] and in assay [2] was over 320 µM each time. For the compound `N=C1NC(=O)/C(=C/c2ccc(Cl)c(Cl)c2)S1`, the values for the IC50 in assay [1] and in assay [2] were 116 µM and 145 µM, respectively. As for `O=C1NC(=S)S/C1=C\c1cc([N+](=O)[O-])ccc1SC1CCCCC1`, the IC50 in assay [1] is 9.94 µM; in assay [2], 8.73 µM.

`O=C1NC(=S)S/C1=C\c1cc([N+](=O)[O-])ccc1F`: the IC50 in assay [1] turned out to be 101 µM; in assay [2], 89.7 µM.

Consider `O=C1NC(=S)S/C1=C\c1cc([N+](=O)[O-])ccc1N1CCCCC1`, for which the IC50 in assay [1] was 41.2 µM; in assay [2] it was 23.7 µM.

`COc1c(Br)cc(Br)cc1/C=C1\SC(=S)NC1=O`: the IC50 came to 31.4 µM in assay [1] and 18.1 µM in assay [2]. Consider `CCOc1c(Br)cc(Br)cc1/C=C1\SC(=S)NC1=O`, for which the IC50 in assay [1] was determined as 22.3 µM; in assay [2], 13.5 µM. On the same counts, the results for `COc1ccc(F)c(/C=C2\SC(=S)NC2=O)c1` are 179 µM and 193 µM. For `COc1ccc([N+](=O)[O-])cc1/C=C1\SC(=S)NC1=O`, in that order: 126 µM and 89 µM. As to `O=C1NC(=S)S/C1=C\c1cc(Br)cc(Br)c1`, the IC50 stood at 22 µM in assay [1] and 14.2 µM in assay [2].

In the case of `CN(C)c1ccc(/C=C2\SC(=S)NC2=O)c([NH+]([O-])O)c1` (stereo not shown), the IC50 in assay [1] is 22.6 µM; in assay [2], 44.4 µM.
